Test results from publication PMC9898036, “VIP152 is a selective CDK9 inhibitor with pre-clinical in vitro and in vivo efficacy in chronic lymphocytic leukemia” (Leukemia, 2022).

What was measured:
Histamine H1 = Histamine H1 (Homo sapiens, UniProt P35367); experiment: Eurofins Diversity Panel; type: binding; details: hum, Conc. 10 μM
SRPK3 = SRPK3 (Homo sapiens, UniProt Q9UPE1); experiment: KINOMEscan: SRPK3; type: binding; details: 100 nM, read-out: Percent Control
CDK11 = CDK11 (Homo sapiens, UniProt Q9BWU1); experiment: KINOMEscan: CDK11; type: binding; details: 1000 nM, read-out: Percent Control
CAMKK1 = CAMKK1 (Homo sapiens, UniProt Q8N5S9); experiment: KINOMEscan: CAMKK1; type: binding; details: 1000 nM, read-out: Percent Control
Chain of CAMKK1 (Q8N5S9 whole entry): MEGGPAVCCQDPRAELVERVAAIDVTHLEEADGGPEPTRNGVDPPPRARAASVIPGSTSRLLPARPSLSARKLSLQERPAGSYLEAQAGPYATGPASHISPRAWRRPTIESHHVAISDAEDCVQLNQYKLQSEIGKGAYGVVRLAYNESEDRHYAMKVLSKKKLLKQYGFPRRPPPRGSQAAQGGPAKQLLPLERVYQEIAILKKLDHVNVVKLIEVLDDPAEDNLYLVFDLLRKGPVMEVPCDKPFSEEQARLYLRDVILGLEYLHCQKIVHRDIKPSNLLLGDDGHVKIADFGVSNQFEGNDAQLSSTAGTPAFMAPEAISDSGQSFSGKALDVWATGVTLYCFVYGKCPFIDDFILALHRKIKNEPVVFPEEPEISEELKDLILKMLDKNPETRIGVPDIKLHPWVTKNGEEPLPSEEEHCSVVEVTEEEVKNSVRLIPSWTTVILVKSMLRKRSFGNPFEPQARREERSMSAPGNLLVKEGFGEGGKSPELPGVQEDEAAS

MUSK = MUSK (Homo sapiens, UniProt O15146); experiment: KINOMEscan: MUSK; type: binding; details: 1000 nM, read-out: Percent Control
Sodium Channel, Site 2 = experiment: Eurofins Diversity Panel; type: binding; details: rat, Conc. 10 μM
WNK4 = WNK4 (Homo sapiens, UniProt Q96J92); experiment: KINOMEscan: WNK4; type: binding; details: 100 nM, read-out: Percent Control
Chain of WNK4 (Q96J92 whole entry): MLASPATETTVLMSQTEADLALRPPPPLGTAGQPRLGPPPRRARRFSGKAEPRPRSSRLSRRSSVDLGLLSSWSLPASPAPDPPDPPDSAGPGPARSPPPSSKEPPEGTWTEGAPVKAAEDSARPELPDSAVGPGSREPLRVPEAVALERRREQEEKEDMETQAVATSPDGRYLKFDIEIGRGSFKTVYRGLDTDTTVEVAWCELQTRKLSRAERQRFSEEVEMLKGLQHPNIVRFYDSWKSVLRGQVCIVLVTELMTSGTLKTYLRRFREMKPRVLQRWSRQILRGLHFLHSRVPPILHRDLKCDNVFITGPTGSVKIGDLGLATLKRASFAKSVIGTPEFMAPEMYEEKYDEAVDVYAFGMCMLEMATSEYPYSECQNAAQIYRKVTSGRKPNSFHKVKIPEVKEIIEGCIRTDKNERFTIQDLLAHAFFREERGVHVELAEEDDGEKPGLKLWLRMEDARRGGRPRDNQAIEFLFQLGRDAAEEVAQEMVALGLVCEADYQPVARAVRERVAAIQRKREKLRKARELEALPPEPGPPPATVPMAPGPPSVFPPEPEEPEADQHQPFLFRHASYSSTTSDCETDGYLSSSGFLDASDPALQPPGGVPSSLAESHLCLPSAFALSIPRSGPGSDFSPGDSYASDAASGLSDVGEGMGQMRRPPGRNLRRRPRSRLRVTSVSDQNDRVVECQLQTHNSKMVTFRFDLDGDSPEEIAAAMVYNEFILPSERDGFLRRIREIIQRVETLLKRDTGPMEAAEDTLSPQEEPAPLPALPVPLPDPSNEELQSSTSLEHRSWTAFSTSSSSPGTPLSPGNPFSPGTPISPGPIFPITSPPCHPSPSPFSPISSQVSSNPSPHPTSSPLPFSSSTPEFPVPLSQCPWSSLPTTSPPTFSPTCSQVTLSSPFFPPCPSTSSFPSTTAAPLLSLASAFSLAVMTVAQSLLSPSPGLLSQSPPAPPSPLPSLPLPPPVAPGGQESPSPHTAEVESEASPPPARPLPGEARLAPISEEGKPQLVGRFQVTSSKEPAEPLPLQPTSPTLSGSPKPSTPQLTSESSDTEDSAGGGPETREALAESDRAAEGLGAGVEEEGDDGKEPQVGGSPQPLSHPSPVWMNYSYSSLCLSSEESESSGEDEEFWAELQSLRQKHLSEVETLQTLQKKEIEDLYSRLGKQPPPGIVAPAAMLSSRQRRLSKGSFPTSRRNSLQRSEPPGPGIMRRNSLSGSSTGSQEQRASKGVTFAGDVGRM

[1] = tested on: relapsed/refractory primary CLL samples; experiment: Annexin V/propidium iodide flow cytometry; type: cell-based; details: Homo sapiens; 8 BTKi/venetoclax relapsed/refractory samples; 24 h; read-out: IC50 (50% killing)
Bradykinin B1 = Bradykinin B1 (Homo sapiens, UniProt P46663); experiment: Eurofins Diversity Panel; type: binding; details: hum, Conc. 10 μM
[2] = target: RSK2(Kin.Dom.2-C-terminal) (Homo sapiens, UniProt P51812); experiment: KINOMEscan: RSK2(Kin.Dom.2-C-terminal); type: binding; details: 100 nM, read-out: Percent Control
Chain of RSK2(Kin.Dom.2-C-terminal) (P51812 398-740 limits assumed): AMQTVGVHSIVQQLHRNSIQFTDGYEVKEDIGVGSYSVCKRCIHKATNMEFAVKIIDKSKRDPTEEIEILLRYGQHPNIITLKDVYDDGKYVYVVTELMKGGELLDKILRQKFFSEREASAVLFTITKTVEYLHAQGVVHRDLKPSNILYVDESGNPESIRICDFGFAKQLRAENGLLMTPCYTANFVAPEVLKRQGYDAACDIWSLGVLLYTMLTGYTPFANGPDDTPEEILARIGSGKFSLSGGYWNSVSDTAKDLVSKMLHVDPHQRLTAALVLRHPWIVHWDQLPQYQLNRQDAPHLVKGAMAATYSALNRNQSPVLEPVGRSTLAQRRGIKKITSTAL

Estrogen Erα = Estrogen Erα (Homo sapiens, UniProt P03372); experiment: Eurofins Diversity Panel; type: binding; details: hum, Conc. 10 μM
DAPK1 = DAPK1 (Homo sapiens, UniProt P53355); experiment: KINOMEscan: DAPK1; type: binding; details: 1000 nM, read-out: Percent Control
GRK1 = GRK1 (Homo sapiens, UniProt Q15835); experiment: KINOMEscan: GRK1; type: binding; details: 1000 nM, read-out: Percent Control
EPHB2 = EPHB2 (Homo sapiens, UniProt P29323); experiment: KINOMEscan: EPHB2; type: binding; details: 1000 nM, read-out: Percent Control
YANK2 = YANK2 (Homo sapiens, UniProt Q9NY57); experiment: KINOMEscan: YANK2; type: binding; details: 100 nM, read-out: Percent Control
Chain of YANK2 (Q9NY57 whole entry): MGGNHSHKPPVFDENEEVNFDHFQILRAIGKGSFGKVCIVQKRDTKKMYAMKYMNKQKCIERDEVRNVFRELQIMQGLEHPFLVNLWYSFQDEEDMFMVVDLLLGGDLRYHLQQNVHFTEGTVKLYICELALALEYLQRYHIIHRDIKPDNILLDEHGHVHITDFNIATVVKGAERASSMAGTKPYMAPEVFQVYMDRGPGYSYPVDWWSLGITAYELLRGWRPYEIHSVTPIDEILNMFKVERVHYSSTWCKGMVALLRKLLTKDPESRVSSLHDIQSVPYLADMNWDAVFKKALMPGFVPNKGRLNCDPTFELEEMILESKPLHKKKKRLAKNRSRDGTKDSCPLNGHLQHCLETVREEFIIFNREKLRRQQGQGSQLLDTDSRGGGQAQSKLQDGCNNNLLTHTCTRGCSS

SYK = SYK (Homo sapiens, UniProt P43405); experiment: KINOMEscan: SYK; type: binding; details: 100 nM, read-out: Percent Control
FLT3-autoinhibited = FLT3-autoinhibited (Homo sapiens, UniProt P36888); experiment: KINOMEscan: FLT3-autoinhibited; type: binding; details: 1000 nM, read-out: Percent Control
MAP4K3 = MAP4K3 (Homo sapiens, UniProt Q8IVH8); experiment: KINOMEscan: MAP4K3; type: binding; details: 1000 nM, read-out: Percent Control
Chain of MAP4K3 (Q8IVH8 whole entry): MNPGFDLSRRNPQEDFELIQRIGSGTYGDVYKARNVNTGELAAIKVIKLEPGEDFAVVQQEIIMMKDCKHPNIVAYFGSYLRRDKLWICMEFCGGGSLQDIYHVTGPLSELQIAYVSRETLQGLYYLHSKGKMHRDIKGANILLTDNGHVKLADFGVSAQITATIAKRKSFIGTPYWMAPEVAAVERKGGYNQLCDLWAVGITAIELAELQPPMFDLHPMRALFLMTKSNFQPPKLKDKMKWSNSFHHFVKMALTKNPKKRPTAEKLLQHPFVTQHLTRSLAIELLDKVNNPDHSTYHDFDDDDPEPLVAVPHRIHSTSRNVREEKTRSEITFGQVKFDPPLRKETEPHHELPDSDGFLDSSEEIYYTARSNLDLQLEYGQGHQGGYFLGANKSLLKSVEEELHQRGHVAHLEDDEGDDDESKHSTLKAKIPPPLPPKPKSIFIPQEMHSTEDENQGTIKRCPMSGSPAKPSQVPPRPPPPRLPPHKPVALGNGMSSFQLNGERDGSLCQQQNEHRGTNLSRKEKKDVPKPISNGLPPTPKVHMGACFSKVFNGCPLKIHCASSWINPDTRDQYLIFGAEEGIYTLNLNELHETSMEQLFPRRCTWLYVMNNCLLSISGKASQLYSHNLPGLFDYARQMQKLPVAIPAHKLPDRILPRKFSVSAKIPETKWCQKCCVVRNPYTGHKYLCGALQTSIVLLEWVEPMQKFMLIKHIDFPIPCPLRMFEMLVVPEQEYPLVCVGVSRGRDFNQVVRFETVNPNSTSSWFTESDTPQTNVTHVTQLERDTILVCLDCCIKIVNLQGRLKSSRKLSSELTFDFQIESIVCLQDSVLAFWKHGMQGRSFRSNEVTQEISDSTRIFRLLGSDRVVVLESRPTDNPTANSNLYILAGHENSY

KIT = KIT (Homo sapiens, UniProt P10721); experiment: KINOMEscan: KIT; type: binding; details: 1000 nM, read-out: Percent Control
SRPK2 = SRPK2 (Homo sapiens, UniProt P78362); experiment: KINOMEscan: SRPK2; type: binding; details: 100 nM, read-out: Percent Control
CDK2 = CDK2 (Homo sapiens, UniProt P24941); experiment: KINOMEscan: CDK2; type: binding; details: 1000 nM, read-out: Percent Control
MAP3K2 = MAP3K2 (Homo sapiens, UniProt Q9Y2U5); experiment: KINOMEscan: MAP3K2; type: binding; details: 1000 nM, read-out: Percent Control
[3] = target: JAK1(JH2domain-pseudokinase) (Homo sapiens, UniProt P23458); experiment: KINOMEscan: JAK1(JH2domain-pseudokinase); type: binding; details: 1000 nM, read-out: Percent Control
RIOK3 = RIOK3 (Homo sapiens, UniProt O14730); experiment: KINOMEscan: RIOK3; type: binding; details: 100 nM, read-out: Percent Control
CAMK2G = CAMK2G (Homo sapiens, UniProt Q13555); experiment: KINOMEscan: CAMK2G; type: binding; details: 1000 nM, read-out: Percent Control
Potassium Channel [KATP] = Potassium Channel [KATP] (Cricetus cricetus, UniProt Q09427); experiment: Eurofins Diversity Panel; type: binding, hamster; details: ham, Conc. 10 μM
Procedure: The structure and synthesis of VIP152 were recently described by Lücking et al.. (Fig. 1A); however, the selectivity of the molecule in cellular systems has yet to be explored. […] We also performed this experiment at 1000 nM, where CDK9 was inhibited at 99%. […] We found a strong concordance between our data and those of Lücking when comparing the most inhibited kinases. Potential off-target effects of VIP152 were next tested in vitro at a concentration of 10 µM for off-target activity against a broad range of receptors, transporters, ion channels, and enzymes (n = 138) using the Eurofins Diversity Panel.

AAK1 = AAK1 (Homo sapiens, UniProt Q2M2I8); experiment: KINOMEscan: AAK1; type: binding; details: 1000 nM, read-out: Percent Control
CDKL5 = CDKL5 (Homo sapiens, UniProt O76039); experiment: KINOMEscan: CDKL5; type: binding; details: 1000 nM, read-out: Percent Control
[4] = target: T1, CDK9 in complex with Cyclin K (Homo sapiens, UniProt P50750); experiment: HotSpot radiometric kinase assay; type: biochemical; details: 10-dose series from 0.5 nM to 10 µM; vs dinaciclib, KB-0742, atuveciclib
T1 construct: host or cells: HEK293
T1 sequence (P50750 whole entry): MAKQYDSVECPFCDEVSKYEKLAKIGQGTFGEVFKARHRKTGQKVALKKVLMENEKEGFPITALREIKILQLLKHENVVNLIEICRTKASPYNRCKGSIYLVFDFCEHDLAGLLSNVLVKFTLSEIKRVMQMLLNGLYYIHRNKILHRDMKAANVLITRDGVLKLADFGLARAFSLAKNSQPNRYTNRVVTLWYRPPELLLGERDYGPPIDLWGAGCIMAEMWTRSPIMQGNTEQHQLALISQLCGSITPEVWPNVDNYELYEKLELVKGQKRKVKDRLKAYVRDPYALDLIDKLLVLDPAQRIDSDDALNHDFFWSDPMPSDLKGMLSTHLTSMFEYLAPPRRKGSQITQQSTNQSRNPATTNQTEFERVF
T1 sequence (O75909 whole entry partner): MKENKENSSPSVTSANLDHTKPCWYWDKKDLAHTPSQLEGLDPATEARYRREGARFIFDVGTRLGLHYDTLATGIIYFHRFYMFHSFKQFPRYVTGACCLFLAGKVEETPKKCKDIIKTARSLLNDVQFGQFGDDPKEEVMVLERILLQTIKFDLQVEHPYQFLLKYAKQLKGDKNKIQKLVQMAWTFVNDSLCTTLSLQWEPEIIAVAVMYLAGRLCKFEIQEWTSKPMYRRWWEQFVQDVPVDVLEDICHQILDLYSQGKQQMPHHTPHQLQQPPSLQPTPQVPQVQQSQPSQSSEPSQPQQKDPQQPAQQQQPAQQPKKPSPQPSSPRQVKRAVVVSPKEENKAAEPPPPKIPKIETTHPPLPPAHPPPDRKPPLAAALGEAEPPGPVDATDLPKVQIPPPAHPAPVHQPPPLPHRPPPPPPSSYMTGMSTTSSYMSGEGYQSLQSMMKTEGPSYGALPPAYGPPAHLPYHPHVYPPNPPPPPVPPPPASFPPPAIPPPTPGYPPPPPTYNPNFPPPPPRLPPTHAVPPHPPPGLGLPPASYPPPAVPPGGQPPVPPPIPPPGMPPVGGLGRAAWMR
Procedure: We next compared VIP152 to other CDK inhibitors currently in development. […] The compounds were tested in a 10-dose series from 0.5 nM to 10 µM against CDK9 in complex with Cyclin T1/T2/K, CDK7/Cyclin H, and GSK3α/β. […]
HotSpot Kinase Assay Protocol
Compounds tested via HotSpot Kinase Assay were sent to ReactionBio for the experiment. The […]
Kinase substrate was added to reaction buffer (20 mM Hepes (pH 7.5), 10 mM MgCl2, 1 mM EGTA, 0.01% Brij35, 0.02 mg/ml BSA, 0.1 mM Na3VO4, 2 mM DTT, 1% DMSO). Cofactors and kinases were gently added to the reaction buffer. Compounds to be tested were dissolved in 100% DMSO and were delivered into the kinase reaction mixture by Acoustic technology (Echo550; nanoliter range) and incubated for 20 min at room temperature. 32P-ATP was delivered into the reaction mixture and the reaction was allowed to proceed for 2 hours. Kinase activity was detected by P81 filter-binding method.

GRK2 = GRK2 (Homo sapiens, UniProt P25098); experiment: KINOMEscan: GRK2; type: binding; details: 1000 nM, read-out: Percent Control
Chain of GRK2 (P25098 whole entry): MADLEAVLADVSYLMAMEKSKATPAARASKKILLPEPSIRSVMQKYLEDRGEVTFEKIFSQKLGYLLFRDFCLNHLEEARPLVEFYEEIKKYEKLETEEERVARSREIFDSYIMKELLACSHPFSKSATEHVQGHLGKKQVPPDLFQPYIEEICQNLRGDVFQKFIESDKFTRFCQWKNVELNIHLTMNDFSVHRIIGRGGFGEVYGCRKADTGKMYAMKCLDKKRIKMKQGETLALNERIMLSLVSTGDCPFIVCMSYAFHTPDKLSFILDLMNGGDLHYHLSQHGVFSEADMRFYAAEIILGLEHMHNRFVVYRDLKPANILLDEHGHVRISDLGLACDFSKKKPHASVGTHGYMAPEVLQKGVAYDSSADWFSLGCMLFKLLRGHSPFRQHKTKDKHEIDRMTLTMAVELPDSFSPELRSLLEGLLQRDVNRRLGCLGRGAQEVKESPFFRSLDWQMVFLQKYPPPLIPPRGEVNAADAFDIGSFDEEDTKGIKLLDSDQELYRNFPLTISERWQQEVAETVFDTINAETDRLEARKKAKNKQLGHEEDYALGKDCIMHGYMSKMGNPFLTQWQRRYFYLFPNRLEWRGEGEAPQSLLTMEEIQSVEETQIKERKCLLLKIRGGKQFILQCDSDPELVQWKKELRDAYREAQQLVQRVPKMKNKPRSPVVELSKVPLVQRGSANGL

ROCK2 = ROCK2 (Homo sapiens, UniProt O75116); experiment: KINOMEscan: ROCK2; type: binding; details: 100 nM, read-out: Percent Control
STK16 = STK16 (Homo sapiens, UniProt O75716); experiment: KINOMEscan: STK16; type: binding; details: 100 nM, read-out: Percent Control

## COc1cc(F)ccc1-c1cc(Nc2cc(CS(C)(=N)=O)ccn2)ncc1F (centres unmarked) [VIP152]
Histamine H1
  inhibition at 10 µM: 1%
SRPK3
  remaining binding at 0.1 µM: 100%
CDK11
  remaining binding at 1 µM: 100%
CAMKK1
  remaining binding at 1 µM: 13%
MUSK
  remaining binding at 1 µM: 58%
Sodium Channel, Site 2
  % Inh.: 26%
WNK4
  remaining binding at 0.1 µM: 100%
[1]
  IC50: ~1000 nM
Bradykinin B1
  inhibition at 10 µM: 1%
[2]
  remaining binding at 0.1 µM: 100%
Estrogen Erα
  inhibition at 10 µM: 6%
DAPK1
  remaining binding at 1 µM: 87%
GRK1
  remaining binding at 1 µM: 88%
EPHB2
  remaining binding at 1 µM: 92%
YANK2
  remaining binding at 0.1 µM: 71%
SYK
  remaining binding at 0.1 µM: 100%
FLT3-autoinhibited
  remaining binding at 1 µM: 76%
MAP4K3
  remaining binding at 1 µM: 57%
KIT
  remaining binding at 1 µM: 83%
SRPK2
  remaining binding at 0.1 µM: 100%
CDK2
  remaining binding at 1 µM: 51%
MAP3K2
  remaining binding at 1 µM: 57%
[3]
  remaining binding at 1 µM: 96%
RIOK3
  remaining binding at 0.1 µM: 100%
CAMK2G
  remaining binding at 1 µM: 78%
Potassium Channel [KATP]
  inhibition at 10 µM: -19%
AAK1
  remaining binding at 1 µM: 47%
CDKL5
  remaining binding at 1 µM: 90%
[4]
  potency versus the other inhibitors tested: higher potency
GRK2
  remaining binding at 1 µM: 98%
ROCK2
  remaining binding at 0.1 µM: 100%
STK16
  remaining binding at 0.1 µM: 100%
